{"source": "patent USRE47404E1", "about": "“Viral hepatitis treatment” (priority 2006, dated 2019)", "key": {"[1]": {"test": "Cytotoxicity, neutral red dye uptake, RP7", "assay_type": "cell-based", "settings": "human", "method": "Selectivity index=CC50 divided by EC50.\n(§1) The parental replicon-containing cell line was established by electroporation of RNA transcribed in vitro off of the Sca-I-linearized Bart 79I plasmid into Huh-7 cells (Elazar et al., 2003). Bart79I encodes for a second-generation high-efficiency bi-cistronic sub-genomic replicon of genotype 1b containing a single adaptive mutation (S1179I) in the NS5A gene, and the neomycinphosphotransferase gene in the first cistron. The electroporated cells were plated along with naïve Huh-7 feeder cells and grown in medium—DMEM (4.5 g/l glucose, L-glutamine and sodium pyruvate—Mediatech 10-013-CV), 10% fetal bovine serum, 1% Penicillin-streptomycin, 1% L-glutamine (final concentration 2 mM), 1×MEM Non-Essential Amino Acids (100×) (Invitrogen)—and 1 mg/ml G418. […] One of the resulting colonies was isolated, expanded, passaged in 700 μg/ml G418, and termed RP-7."}, "HCV replication": {"tested_on": "HCV replication", "test": "Effect of nitazoxanide pre-treatment and treatment duration (3 or 6 days) on antiviral activity in replicon cultures", "assay_type": "cell-based, hepatitis C virus", "settings": "Hepatitis C virus, expressed as 2′CMeC concentration; for EC50: read-out: EC50, 2′CMeC; for EC90: read-out: EC90, 2′CMeC", "method": "Antiviral activity for each test compound was determined as previously described (Okuse et al., 2005, Antiviral Research 65:23-34). Briefly, replicon cell lines were maintained as sub-confluent cultures on 96-well plates. […] Twenty-four hours after the last dose of compound, antiviral activity was determined by blot hybridization analysis of intracellular HCV RNA, and cytotoxicity was assessed by neutral red dye uptake. EC50, EC90, CC50 and selectivity index were calculated for each compound tested in a replicon cell line. […] Selectivity index=CC50 divided by EC50. EC50, EC90 and CC50 values (±standard deviations [S.D.]) were calculated by linear regression analysis using data combined from all treated cultures.\nAntiviral activity and cytotoxicity was determined 24 hours after the end of each respective treatment as described previously."}, "[2]": {"tested_on": "HCV replication in five HCV genotype 1-derived replicon cell lines", "test": "Median over the five HCV replicon cell lines", "assay_type": "cell-based, hepatitis C virus", "settings": "Hepatitis C virus; median of the replicon cell lines", "method": "(§2) Antiviral activity of nitazoxanide, tizoxanide, interferon α, ribavirin and 2′-C-methyl cytidine was assessed in five different HCV replicon cell lines: (1) AVA5, a subgenomic construct of genotype 1b (Blight et al., 2000, Science 290:1972-1974); (2) H/FL-Neo, a genotype 1a full length construct (Blight et al., 2003, Journal of Virology 77:3181-3190); (3) JWT, a subgenomic construct of genotype 1b (Pfeiffer and Kirkegaard, 2005, Journal of Virology, 79:2346-2355); (4) 4-3-10, a subgenomic construct of genotype 1b, developed by a protocol that involved serial passage of JWT cells in 100 μM for one month followed by 400 μM ribavirin for two weeks (Pfeiffer and Kirkegaard, 2005, Journal of Virology, 79:2346-2355); and (5) RP7, a subgenomic construct of genotype 1b (Elazar et al., 2003, Journal of Virology 77:6055-6061).\n(§3) Antiviral activity for each test compound was determined as previously described (Okuse et al., 2005, Antiviral Research 65:23-34). Briefly, replicon cell lines were maintained as sub-confluent cultures on 96-well plates. Compounds were added daily for three days in fresh medium. Twenty-four hours after the last dose of compound, antiviral activity was determined by blot hybridization analysis of intracellular HCV RNA, and cytotoxicity was assessed by neutral red dye uptake. EC50, EC90, CC50 and selectivity index were calculated for each compound tested in a replicon cell line. […] Selectivity index=CC50 divided by EC50. EC50, EC90 and CC50 values (±standard deviations [S.D.]) were calculated by linear regression analysis using data combined from all treated cultures."}, "[3]": {"tested_on": "HCV replication in AVA5 replicon cell line (subgenomic construct of genotype 1b)", "test": "microbe, parasite or virus in culture", "method": "as §2, §3\n(§4) Nitazoxanide and tizoxanide were provided by Romark Laboratories, L.C. (Tampa, Fla. USA). […] Ribavirin was purchased from Sigma-Aldrich (St. Louis, Mo. USA). 2′-C-methyl cytidine (Pierra, et al. 2005, Nucleosides Nucleotides Nucleic Acids, 24:767-770) was purchased from Moraveck Biochemicals, Inc. (La Brea, Calif. USA). […] Ribavirin, nitazoxanide, tizoxanide and 2′-C-methyl cytidine were solubilized in 100% tissue culture grade DMSO (Sigma). […] Daily aliquots of test compounds were made from the stock solutions in individual tubes and stored at the appropriate temperatures. On each day of treatment, daily aliquots of the test compounds were suspended into culture medium at room temperature, and immediately added to the cell cultures, thereby subjecting each aliquot of test compound to the same, limited, number of freeze-thaw cycles.\nAnalyses of interactions between compounds used in combination treatments were performed using Calcusyn™ software (Biosoft, Cambridge, UK)."}, "[4]": {"test": "Cytotoxicity, neutral red dye uptake, H/FL-Neo", "assay_type": "cell-based", "settings": "human", "procedure": "(§5) Briefly, replicon cell lines were maintained as sub-confluent cultures on 96-well plates. Compounds were added daily for three days in fresh medium. Twenty-four hours after the last dose of compound, antiviral activity was determined by blot hybridization analysis of intracellular HCV RNA, and cytotoxicity was assessed by neutral red dye uptake. EC50, EC90, CC50 and selectivity index were calculated for each compound tested in a replicon cell line. EC50=drug concentration producing a 50% reduction of intracellular HCV RNA relative to the average levels in untreated cultures. EC90=drug concentration producing a 90% reduction of intracellular HCV RNA relative to the average levels in untreated cultures. CC50=drug concentration producing a 50% reduction of neutral red dye uptake relative to the average levels in untreated cultures. Selectivity index=CC50 divided by EC50. EC50, EC90 and CC50 values (±standard deviations [S.D.]) were calculated by linear regression analysis using data combined from all treated cultures."}, "[5]": {"tested_on": "HCV replication in RP7 replicon cell line (subgenomic construct of genotype 1b)", "test": "microbe, parasite or virus in culture", "assay_type": "cell-based, hepatitis C virus", "method": "as §2, §3, §4\nTo evaluate the effect of interferon alpha following pre-treatment with nitazoxanide or tizoxanide, a parental replicon-containing cell line (RP-7) was serially passaged in increasing concentrations of nitazoxanide or tizoxanide. Anti-HCV activity of interferon alpha-2b was determined using the parental cell line and using the cell lines obtained after passage in nitazoxanide or tizoxanide. Anti-HCV activity was determined by the methods described above.\nas §1"}, "[6]": {"tested_on": "HCV replication in 4-3-10 replicon cell line (subgenomic genotype 1b, JWT cells passaged in ribavirin)", "test": "microbe, parasite or virus in culture", "assay_type": "cell-based, hepatitis C virus", "method": "as §2, §3, §4"}, "[7]": {"tested_on": "HCV replication in H/FL-Neo replicon cell line (genotype 1a full length construct)", "test": "microbe, parasite or virus in culture", "assay_type": "cell-based, hepatitis C virus", "method": "as §2, §3, §4"}, "[8]": {"tested_on": "HCV replication in JWT replicon cell line (subgenomic construct of genotype 1b)", "test": "microbe, parasite or virus in culture", "assay_type": "cell-based, hepatitis C virus", "method": "as §2, §3, §4"}, "[9]": {"test": "Cytotoxicity, neutral red dye uptake, AVA5", "assay_type": "cell-based", "settings": "human, AVA5 HCV replicon cells", "procedure": "as §5"}, "AVA5 cells": {"tested_on": "AVA5 cells", "test": "Cytotoxicity, neutral red dye uptake, AVA5", "assay_type": "cell-based", "settings": "AVA5 cell cultures, mono and combination treatments (Table 2)", "procedure": "as §5"}, "[10]": {"settings": "Hepatitis C virus, read-out: EC50"}, "[11]": {"settings": "Hepatitis C virus, read-out: EC90"}}, "note": "Where two headings read alike, the source gives them in different places."}
{"smiles": "C[C@@]1(O)[C@H](O)[C@@H](CO)O[C@H]1n1ccc(N)nc1=O", "note": "[2′-C-methyl cytidine]", "values": [{"measurement": "CC50 at 3 days", "setting": "[1]", "value": "> 300", "unit": "µM"}, {"measurement": "EC50", "setting": "HCV replication; 72 h, duration 3 days", "value": "1.7 ± 0.2", "unit": "µM"}, {"measurement": "EC90", "setting": "HCV replication; 72 h, duration 3 days", "value": "6.2 ± 0.5", "unit": "µM"}, {"measurement": "EC50", "setting": "HCV replication; 144 h, duration 6 days", "value": "1.3 ± 0.2", "unit": "µM"}, {"measurement": "EC90", "setting": "HCV replication; 144 h, duration 6 days", "value": "5.8 ± 0.9", "unit": "µM"}, {"measurement": "EC50", "setting": "[2]", "value": 2.1, "unit": "µM"}, {"measurement": "EC90", "setting": "[2]", "value": 8.1, "unit": "µM"}, {"measurement": "S.I. (Selectivity Index) = CC50/EC50", "setting": "[3]; AVA5", "value": ">143"}, {"measurement": "S.I. = CC50/EC50", "setting": "[3]; AVA5 cell cultures (Table 2)", "value": ">188"}, {"measurement": "EC50", "setting": "[3]; Hepatitis C virus, Ava5, 72 h", "value": "2.1 ± 0.2", "unit": "µM"}, {"measurement": "EC90", "setting": "[3]; Hepatitis C virus, Ava5, AVA5", "value": "8.1 ± 0.7", "unit": "µM"}, {"measurement": "EC90", "setting": "[3]; Hepatitis C virus, GETYPE1B, Ava5, AVA5 cell cultures, mono and combination treatments (Table 2)", "value": "8.3 ± 0.7", "unit": "µM"}, {"measurement": "CC50 at 3 days", "setting": "[4]", "value": "> 1000", "unit": "µM"}, {"measurement": "S.I. (Selectivity Index) = CC50/EC50", "setting": "[5]", "value": ">150"}, {"measurement": "EC50", "setting": "[5]; [10]", "value": "2 ± 0.1", "unit": "µM"}, {"measurement": "EC90", "setting": "[5]; [11]", "value": "9 ± 0.6", "unit": "µM"}, {"measurement": "S.I. (Selectivity Index) = CC50/EC50", "setting": "[6]; 4-3-10", "value": ">143"}, {"measurement": "EC50", "setting": "[6]; Hepatitis C virus", "value": "2.1 ± 0.1", "unit": "µM"}, {"measurement": "EC90", "setting": "[6]; Hepatitis C virus", "value": "8 ± 0.9", "unit": "µM"}, {"measurement": "S.I. (Selectivity Index) = CC50/EC50", "setting": "[7]", "value": ">556"}, {"measurement": "EC50", "setting": "[7]; [10]", "value": "1.8 ± 0.2", "unit": "µM"}, {"measurement": "EC90", "setting": "[7]; [11]", "value": "8.1 ± 0.8", "unit": "µM"}, {"measurement": "S.I. (Selectivity Index) = CC50/EC50", "setting": "[8]", "value": ">136"}, {"measurement": "EC50", "setting": "[8]; [10]", "value": "2.2 ± 0.1", "unit": "µM"}, {"measurement": "EC90", "setting": "[8]; [11]", "value": "8.2 ± 0.7", "unit": "µM"}, {"measurement": "CC50 at 3 days", "setting": "[9]", "value": "> 300", "unit": "µM"}, {"measurement": "CC50", "setting": "AVA5 cells", "value": "> 300", "unit": "µM"}]}
